In patent US9408820B2, “Broncholytic drug on the basis of prostaglandin” (OBSCHESTVO S OGRANICHENNOY OTVETSTVENNOST'YU “PROSTANIT …, priority 2012, dated 2016):

Assays:
[1] = tested on: patients with bronchial asthma in unstable remission state; assay: broncholytic activity by inhalation in patients with bronchial asthma; format: in vivo, human
Text: (§1) The present invention solves the task of creating of bronchial dilating drug on the basis of 1′,3′-dinitroglycerol ester of 11(S),15(S)-dihydroxy-9-keto-5Z,13E-prostadienoic acid (nitroproston). This drug is any form of nitroproston suitable for introduction into the respiratory tract by inhalation, for example in the form of isotonic solution. […] Therapeutic index measured in rodents is greater than 15000.
On the x-axis is the time after the introduction of the nitroproston, min; on the y-axis is the peak exhale velocity (l/min). The names of patients are abbreviated.
(§2) The tests were carried out on healthy volunteers (average age 42.6±3.9 years) and patients with bronchial asthma in unstable remission state (average age 48.3±5.1 years). Nitroproston was introduced via inhalation in the form of a solution in the physiological solution in doses of 5 and 7.5 μg per inhalation. To a person skilled in the art will not meet a difficulty to prepare the solution for inhalation, knowing the dose of the active substance and the volume of the solution, which will be determined by technical features used in the specific context of the inhaler. […] External respiratory function was determined with the help of automatic spiroanalyzer (VI 8911, Estonia). […] So, change the maximum 25% volume exhalation velocity ranged from 10.4 to 32.2% as compared to the original values. Changes in peak volumetric velocity of exhalation in patients who have received 7.5 micrograms nitroproston per inhalation, are presented at the FIG. 1.

healthy volunteers = assay: inhalation in healthy volunteers, external respiratory function; format: in vivo, human
Method: as §1, §2

guinea pig trachea = settings: isolated guinea pig trachea; read-out: EC50, relaxation of the guinea pig trachea; cited from earlier work
individuals = settings: in vivo; cited from earlier work
white outbred male mice [2] = assay: acute toxicity and therapeutic index in mice; format: in vivo; settings: alcohol solution
Method: Experiments conducted on white outbred male mice (22±2 g weight). Nitroproston in the form of alcohol solution was injected intraperitoneal to the 10 mice in a maximum of 50 μl per dose of 215 mg/kg. The control group (10 animals) was injected with the same volume of pure ethyl alcohol. Animal health monitoring period was 14 days. Therapeutic index defined as the ratio of LD50 values (toxic dose) to the ED20 for change in blood pressure (pharmacological dose).

white outbred male mice [3] = assay: toxicity in repeated introduction in mice; format: in vivo; settings: 50 and 500 μg/kg daily for 14 days
Method: Experiments conducted on white outbred male mice (22±2 g weight). Animals were divided into three groups of 10 animals each. Nitroproston (1% of alcoholic solution) was diluted with water and was injected in the volume 20 μl in two doses: 50 and 500 μg/kg. The control group was injected with equal volume of distilled water. The injections worked every day for 14 days. The animals were observed daily, measuring their weight, the intake of food and water. There have been observed no differences in the state and behavior of the animals between the control and experimental groups.

SMILES	bronchospasm test result ([1]; patients with bronchial asthma)	changes in the functions of the external respiration (healthy volunteers)	EC50 (guinea pig trachea) [nM]	side effect in individuals (individuals)	animal deaths (white outbred male mice [2]; 215 mg/kg intraperitoneal, 14 days observation)	acute toxicity assessment (white outbred male mice [2]; intraperitoneal, mice)	toxic effects on repeated introduction (white outbred male mice [3])	parameters of external breath ([1]; 5 μg per inhalation)	side effects ([1]; 5 μg per inhalation)	external respiration indices ([1]; 7.5 μg per inhalation)	toxicity at therapeutic doses ([1]; 5-20 μg per inhalation)	peak volumetric velocity of exhalation ([1]; 7.5 micrograms per inhalation, within 360 minutes (FIG. 1))	only side effect of the inhalation solution ([1]; inhalation solution)	bronchial dilation and side effects ([1]; isotonic solution, 7.5 micrograms per inhalation)	cough bouts ([1]; patients with asthma, inhalation)	cough bouts (healthy volunteers)
CC(Cc1ccc(O)cc1)NCC(O)c1cc(O)cc(O)c1 (stereo not drawn) [Berotec, reference compound]	positive result	did not cause significant changes	–	–	–	–	–	–	–	–	–	–	–	–	–	–
CCCCC[C@H](O)/C=C/[C@H]1[C@H](O)CC(=O)[C@@H]1C/C=C\CCCC(=O)O [natural prostaglandin E2, prostaglandin E2, reference compound]	–	–	140 ± 80	strong cough reflex	–	–	–	–	–	–	–	–	–	–	–	–
CCCCC[C@H](O)/C=C/[C@H]1[C@@H](O)CC(=O)[C@@H]1C/C=C\CCCC(=O)OC(CO[N+](=O)[O-])CO[N+](=O)[O-] [nitroproston, 1′,3′-dinitroglycerol ester of 11(S),15(S)-dihydroxy-9-keto-5Z,13E-prostadienoic acid]	–	did not cause significant changes	7	–	animal deaths have not observed	low-toxic compound	no toxic effects	improved slightly	have not noticed any side effects	have been improved	non-toxic	strongest increase	transient dry mouth	prolonged dilation of bronchus without side effects	no cough bouts	no cough bouts
